According to patent US20070003531A1, “Methods for improving immunotherapy by enhancing survival of antigen-specific cytotoxic T lymphocytes” (University of Connecticut, priority 2005, published 2007):
pKi: −log10 of the molar value. Entries after “also recorded” stand apart in the source; their conditions may differ.

Experiments:
[1] = system: MART-127-35 epitope specific human primary CTL; assay: AICD induction and quantitation in epitope specific primary CTL (tetramer/annexin V FACS); format: cell-based; conditions: pre-incubation about 45 min; restimulation with MART-127-35 peptide pulsed T2 cells; kinase inhibitors 25 μM, z-VAD-fmk 100 μM, Fc chimeras 10 μg/ml
Method: FIG. 10. Effect of external death receptor blockade and MAP kinase inhibitors on AICD in the epitope specific CTLs upon secondary encounter of the cognate epitope. The CTLs were pre-incubated at optimal concentration for about 45 min. at about 37° C. with pan caspase inhibitor z-VAD-fmk (100 μM); human Fas/Fc chimera, human TNF-RI/Fc chimera, human TRAIL-RI/Fc chimera, human TRAIL-RII/Fc chimera and human IFN-γ RI/Fc chimeric proteins (10 μg/ml); p38 kinase inhibitor SB203580, JNK inhibitor anthra[1,9-cd]pyrazol-6(2H)-one (SP600125), […] inhibitor PD98059 (25 μM). Then the pretreated as well as untreated CTLs were incubated with T2 cells either alone or loaded with peptide. About 4 hours after secondary exposure cells were stained for determining: (A) Number of tetramer^+ cells out of the CD8^+ T cells [Top panel]; number of tetramer^+/Annexin V^+ and tetramer^+/Annexin^− populations [Bottom panel]. […] (B) Effect of the MAP kinase inhibitors on IFN-γ response by the effector cells.
AICD induction and quantitation. AICD in the human primary CTL primed and expanded specifically for melanoma epitope MART-127-35 was induced by re-exposure of the CTLs to MART-127-35 peptide (1 μg/ml) as reported previously. Staurosporine mediated death was induced by exposure of CTL to 1 μM staurosporine for 4 hr. Quantitation of AICD and the effects of various inhibitors on AICD of CTLs, were carried out by annexin-V staining followed by FACS analyses as reported previously.
In test whether or not the epitope specific primary CTLs undergo AICD, the activated CTLs were exposed to peptide [1 μg/ml] loaded T2 cells (Effector: Target=100) at different time points of the cultures. Thereafter, the evidence of apoptosis was determined by flow cytometry with triple color staining (CD8, MART-127-35/HLA-A2 tetramer and annexin V) at different time points (4-18 h). Experiments were carried out in triplicate wells and significance was calculated by One-way analysis of variance (ANOVA) using Sigma Stat statistical software, Chicago, Ill.
To evaluate the effect of various agents in modulating AICD, the CTLs were pre-incubated with various compounds at optimal concentration for 45 min. at 37° C. and then exposed to T2 cells alone or loaded with peptide.

[2] = system: c-jun phosphorylation/activation in Jurkat T cells; assay: JNK activation assay in PMA/ionomycin stimulated Jurkat cells; format: cell-based, human; conditions: PMA (10 ng/ml)/ionomycin (0.5 μM); SP600125 25 μM
Method: FIG. 1. […] (A) Effect of the JNK inhibitor SP600125 on AICD in the MART-127-35 epitope specific CTL. Histogram represents FACS analysis of the percent of MART-127-35 epitope specific CTLs that were tetramer positive and annexin negative after restimulation with MAGE-3271-279 control peptide (M3) pulsed T2 cells or MART-127-35 peptide (M1) pulsed T2 cells either alone or re-stimulated after pre-incubation with JNK inhibitor SP600125, p38-kinase inhibitor SB203580, ERK1/2 inhibitor PD98059 or caspase-inhibitor z-VAD-fink. MAGE-3271-279. (B) JNK activation results in phosphorylation of c-Jun during AICD in CTL that is blocked by SP600125. Immunoblots show analyses of CTL extracts probed with anti-phosphor-c-Jun, anti-c-Jun, and anti-actin antibodies. […] (i) Jurkat cells were treated with PMA+ionomycin in the absence or presence of SP600125 and JNK activation (c-Jun phosphorylation) was assessed with anti-phospho-c-Jun antibody. […] (ii) Jurkat cells were treated with Staurosporine for 1 and 4 hrs in the absence (S) or presence of caspase inhibitor, z-VAD-fmk (CI), JNK inhibitor, SP600125 (SP) or ERK1/2 inhibitor PD98059 (PD) and cleavage of PARP was detected by immunoblotting, using actin as a loading control. […] Percent annexin positive cells in all samples were quantified by FACS analysis and shown below the blot […]

[3] = system: MART-127-35 epitope specific CTLs; assay: IFN-γ response assay (ELISA); format: cell-based, human
Method: IFN-γ response assay for the effector cells has been described previously. Briefly, the effector cells were co-cultured with the peptide pulsed (1 μg/ml) T2 cells. After 4-16 h, culture supernatants were harvested and IFN-γ was measured by ELISA as per manufacturer's protocol (R & D Systems, MN).

[4] = system: MART-127-35 epitope specific CTLs; assay: Chromium release microcytotoxicity assay; format: cell-based; conditions: % specific lysis of peptide loaded T2 cells; inhibitor 25 μM
helper T cells = assay: AICD in helper T cells; format: cell-based
Excerpt: Thus, JNK inhibitors, when administered alone or in combination with other therapeutics, have utility for the treatment of diseases, including AIDS, for which the death of helper T cells is a factor in the etiology, mechanism or progression of that disease.

c-jun N-terminal kinase = conditions: cited from earlier work

Structure (SMILES): O=C1c2ccccc2-c2n[nH]c3cccc1c23 [SP600125, anthra[1,9-cd]pyrazol-6(2H)-one]
- protection/rescue of CTL from AICD [1]: protected; also recorded: rescued a significant fraction; also recorded: capable of protecting; also recorded: blocked
- c-Jun activation (phosphorylation) in Jurkat cells [2]: inhibitory effect; also recorded: abrogates
- IFN-γ synthesis by rescued CTLs ([3]; five days continued culture in IL-15 without the inhibitor): regained
- IFN-γ response by CTLs in presence of inhibitor ([3]; peptide pulsed T2 cells, inhibitor 25 μM): inhibited; also recorded: negatively regulates
- cytotoxic function of CTLs in presence of inhibitor [4]: did not affect; also recorded: does not affect
- AICD in helper T cells (helper T cells): inhibit/prevent
- pKi (c-jun N-terminal kinase): ~6.72
